The test system of assay [1] is multidrug resistant P. aeruginosa strain PA 5834. Kind of assay: MIC of antibiotics without and with P[5]a, Luria broth (sensitizing effect test). It is filed as cell-based, Pseudomonas aeruginosa. How it is done:
Values in blue, yellow and orange indicate the bacterium is categorized as “susceptible”, “intermediate susceptible” and “resistant”, respectively, according to the “Performance Standards for Antimicrobial Susceptibility Testing”, which is maintained by the Clinical and Laboratory Standards Institute.
So, it was tested whether P[5]a could sensitize (increase the efficacy of) already resistant P. aeruginosa strains PA 5834 (FIG. 4) and PA 5539 (FIG. 5), that are resistant to a wide variety of antibiotics. To test this, two MDR P. aeruginosa strains from clinical isolates were used. These isolates were obtained from patients in the Meilahti hospital (Helsinki, Finland). The antibiotics used, and their different mechanisms of actions, are described in Table 2.
In FIG. 4 with P. aeruginosa strain PA 5834, P[5]a made the bacterium classify as “susceptible” again, whereas without P[5]a it was fully “resistant” to the antibiotics ceftazidime and cefepime (even growing in the highest concentration we tested). This could have major implications, because there have been many encounters already of “Pan-Drug resistant bacteria” bacteria that are classified as “resistant” to all known antibiotics. They are basically untreatable by current standards. P[5]a Virulence inhibitors, might make those bacteria susceptible again for treatment. In FIG. 5 with P. aeruginosa strain PA 5539, the overall resistance profile of the bacterium was much lower. […] Further testing was done on six resistant P. aeruginosa strains from the Helsinki hospital collection, PA 5550, PA 5842, PA 5827, PA 5832, PA 5834 and PA 5539 with four different antibiotics (amikacin, cefepime, ceftazidime and meropenem).

Assay [2] has as its system Pseudomonas aeruginosa 2798 (ATCC 2798). The assay is described as follows: Resistance profile of strain (Table 3). The assay is classed as cell-based. Particulars: strain 2798 (ATCC 2798). The text has this:
(§1) The effect of P[5]a on the penetration and efficacy of coadministered antibiotics Amikacin (a), Cefepime (b), Ceftazidime (c) and Meropenem (d) in MDR resistant clinical isolates were studied.

Assay [3] concerns Pseudomonas aeruginosa 5542. Kind of assay: Resistance profile of strain (Table 3). The assay is classed as cell-based. Particulars: strain 5542 P. aeruginosa.
From the text: as §1

In assay [4] the test system is Pseudomonas aeruginosa 5550. Kind of assay: Resistance profile of strain (Table 3). The assay is classed as cell-based. Particulars: strain 5550.
From the text: as §1

In assay [5] the test system is Pseudomonas aeruginosa 5832. The assay is described as follows: Resistance profile of strain (Table 3). It is filed as cell-based. Particulars: strain 5832.
From the text: as §1

In assay [6] the test system is Pseudomonas aeruginosa 5834. Kind of assay: Resistance profile of strain (Table 3). It is filed as cell-based. Particulars: strain 5834.
From the text: as §1

In assay [7] the test system is Pseudomonas aeruginosa 5827. Kind of assay: Resistance profile of strain (Table 3). It is filed as cell-based. Particulars: strain 5827.
The test system of assay [8] is Pseudomonas aeruginosa 5539. The assay is described as follows: Resistance profile of strain (Table 3). The assay is classed as cell-based. Particulars: strain 5539.
Assay [9] relates to P. aeruginosa PAO1. The assay is described as follows: Antibiotic resistance buildup, daily MIC over 14 consecutive days. The assay is classed as cell-based, Pseudomonas aeruginosa. From the text: Area below the yellow line means that the bacterium is classified as susceptible to the antibiotic. The area in between yellow and red means that the bacterium is intermediate susceptible to the antibiotic. The area above the red line means that the bacterium is classified as resistant to the antibiotic (According to the “Performance Standards for Antimicrobial Susceptibility Testing”, which is maintained by the Clinical and Laboratory Standards Institute).
Because of this, a combined administration of P[5]a with a variety of antibiotics was tested. MIC values with two different antibiotics, meropenem and cefepime (FIG. 2) were tested, over a period of 14 consecutive days (which more than surpasses the length of normal treatments, 7-10 days), when administered together with and without 2.5 mM P[5]a.
In this experiment, the minimum inhibitory concentration MIC was analyzed daily for 14 consecutive days, and the highest MIC values (so the highest concentration of antibiotic where the bacteria still grew) was used for the next day. This way, the buildup of resistance over time can be monitored. In FIG. 2, the area below the yellow line means that the bacterium is classified as susceptible to the antibiotic, the area in between yellow and red means that the bacterium is intermediate susceptible to the antibiotic and the area above the red line means that the bacterium is classified as resistant to the antibiotic (According to the “Performance Standards for Antimicrobial Susceptibility Testing”, which is maintained by the Clinical and Laboratory Standards Institute).
The effect of P[5]a on encountering resistance development in a pathogenic Gram-negative bacterium, Pserudomonas aeruginosa, strain PA01 was studied over 14-day period. The development of resistance over 14 continuous days by the pathogen PAO1 towards treatment with four clinically relevant antibiotics (meropenem, cefepime, aztreonam and tobramycin) and P[5]a was compared. […] In all antibiotic treatments, reduced susceptibility was observed from day 4 onwards, with complete resistance to all treatments after 12 days.
The effect of P[5]a on the enhancement of the penetration of coadministered antibiotics having intracellular targets (aztreonam, cefepime, meropenem and tobramycin) was studied over 14-day period in a pathogenic Gram-negative bacterium, Pserudomonas aeruginosa, strain PA01. […] MIC values were categorized in three groups according to the Clinical and Laboratory Standards Institute: susceptible, intermediate susceptible and resistant.

≈ marks a conversion by molar mass, not a printed value.

For `CC(C)(O/N=C(\C(=O)N[C@@H]1C(=O)N2C(C(=O)[O-])=C(C[n+]3ccccc3)CS[C@H]12)c1csc(N)n1)C(=O)O` [ceftazidime, Ceftazidime], the figures for the “susceptibility classification (CLSI)” value in [1] (with P[5]a) and in assay [1] (without P[5]a) were “susceptible” and “resistant”, respectively. Moreover, the “Antibiotic resistance (category)” value in assay [2] is on record as “Aztreonam & Cefepime, Resistant to Ceftazidime, Cirpofloxacin,”; in assay [3], “resistant”; in assay [4], “resistant”; in assay [5], “resistant”; in [6], “resistant”; in assay [7] it was “resistant”. In addition, in [8], the “Antibiotic resistance (category)” value was “resistant”. The “Antibiotic resistance (value given with the category, MIC)” value was 32 µg in assay [3]; 16 µg in assay [4]; 16 µg in assay [5]; “cefepime 64 ug, ceftazidime 64 ug and meropenem 64 ug” in assay [6]; 64 µg in assay [7]; 8 µg in assay [8].

Consider `CO/N=C(\C(=O)N[C@@H]1C(=O)N2C(C(=O)[O-])=C(C[N+]3(C)CCCC3)CS[C@H]12)c1csc(N)n1` [cefepime, Cefepime], for which, in assay [9] (Pseudomonas aeruginosa, PAO1, 96 h, after four days, highest concentration of antibiotic included), the MIC amounted to 128 µg/mL (≈ 266 µM). The “development of resistance by the pathogen to the respective antibiotic” value in [9] (coadministration of P[5]a with the antibiotic, 14-day period) is “greatly slowed”. Further, the “susceptibility classification (CLSI)” value in [1] (with P[5]a) was “susceptible”; in [1] (without P[5]a), “resistant”. Further, the “Antibiotic resistance (category)” value was “Intermediate susceptible” in assay [2]; “resistant” in [3]; “Intermediate susceptible” in [4]; “Intermediate susceptible” in assay [5]; “resistant” in assay [6]; “resistant” in assay [7]. In assay [8], the “Antibiotic resistance (category)” value was “intermediate”. Besides, the “Antibiotic resistance (value given with the category, MIC)” value in assay [3] was 32 µg; in [4], 16 µg; in assay [5], 8 µg; in assay [6], “cefepime 64 ug, ceftazidime 64 ug and meropenem 64 ug”; in [7], 32 µg; in [8], 8 µg.

The record behind these values is patent publication US20230145342A1, “COMBINATORY TREATMENT” (AALTO UNIVERSITY FOUNDATION SR, priority 2020, published 2023).
